This note sets out measurements from US8163779B2, “Glucokinase activators” (Takeda San Diego, Inc., priority 2006, dated 2012).

For the test, the target named is T1, glucokinase (GK) (Homo sapiens, UniProt P35557).
T1 construct: I.D. No. 1 corresponds to residues 12-465 of glucokinase; made in house; host or cells: E. coli DH10b-T1r
T1 sequence (P35557 with tags, fused parts or gaps isoform P35557-2): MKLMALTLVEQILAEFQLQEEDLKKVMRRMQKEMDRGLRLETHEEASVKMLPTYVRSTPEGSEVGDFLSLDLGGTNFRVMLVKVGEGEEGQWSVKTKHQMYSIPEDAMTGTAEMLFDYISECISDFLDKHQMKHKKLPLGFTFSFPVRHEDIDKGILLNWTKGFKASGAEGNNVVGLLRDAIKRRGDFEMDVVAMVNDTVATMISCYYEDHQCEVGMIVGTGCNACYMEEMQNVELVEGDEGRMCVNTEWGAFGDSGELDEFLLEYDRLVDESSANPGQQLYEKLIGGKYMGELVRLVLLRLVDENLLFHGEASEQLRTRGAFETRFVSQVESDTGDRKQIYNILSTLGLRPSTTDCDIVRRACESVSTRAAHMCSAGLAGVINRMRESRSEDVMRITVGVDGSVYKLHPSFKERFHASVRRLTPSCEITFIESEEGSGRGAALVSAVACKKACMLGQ
Description: enzymatic glucokinase activity assay (ATP consumption, KinaseGlo luminescence). The test is classed as biochemical. The following applies: recombinant GK residues 12-465; 5 μM ATP, 5 mM Glucose; Kact = concentration that displays 50% of the maximal increase in GK activity; read-out: pKact. The source says: The activity of compounds as glucokinase activators may be assayed in vitro, in vivo or in a cell line. Provided below is an enzymatic glucokinase activity assay.
Purified glucokinase may be obtained as follows. […] SEQ.
The expression of recombinant glucokinase protein may be carried out by transformation and growth of DH10b-T1r E. coli cells incorporating the (pFLAG-CTC) plasmid in LB media. Protein expression can be induced in this system by the addition of IPTG to the culture medium.
Recombinant protein may be isolated from cellular extracts by passage over Sepharose Q Fast Flow resin (Pharmacia). This partially purified GK extract may then be further purified by a second passage over Poros HQ 10 (Applied Biosystems). The purity of GK may be determined on denaturing SDS-PAGE gel. Purified GK may then be concentrated to a final concentration of 20.0 mg/ml. After flash freezing in liquid nitrogen, the proteins can be stored at −78° C. in a buffer containing 25 mM TRIS-HCl pH 7.6, 50 mM NaCl, and 0.5 mM TCEP.
The activation properties of compounds for GK may be determined using a black 384-well-plate format under the following reaction conditions: 25 mM Hepes pH 7.2, 25 mM NaCl, 10 mM MgCl2, 0.01% Brij35, 1 mM DTT, 5 μM ATP, 5 mM Glucose 2% DMSO. The amount of ATP consumed may be determined quantitatively by addition of equal volume of luciferase reagent (luciferase+beetle luciferin—KinaseGlo Luminescent Kinase Assay kit from Promega). The luminescence intensity may be measured by using the Analyst HT from LJL Biosystems.
The reaction mixture may then be incubated at room temperature for 60 min, and quenched and developed by addition of 10 μL of luciferase reagent. Luminescence intensities of the resulting reaction mixtures may be measured after a 10 min incubation at room temperature. The luminescence intensity may be measured by using the Analyst HT from LJL Biosystems.
pKact values may be calculated by non-linear curve fitting of the compound concentrations and luminescence intensities to a standard inhibition/activation equation.
On the technique in general: In Kinase-Glo more light means more ATP remaining.

Where a name gives a salt, the structure may show the parent alone.

On to `COc1ccc2nc(NC(=O)C(CC3CCOCC3)n3ccc(S(=O)(=O)C4CC4)cc3=O)sc2c1` (stereo not drawn) [Example 127, 2-(4-(cyclopropylsulfonyl)-2-oxopyridin-1(2H)-yl)-N-(6-methoxybenzo[d]thiazol-2-yl)-3-(tetrahydro-2H-pyran-4-yl)propanamide], for which the EC50 fell in the range of 1.58 to 15.8 µM.

Take `Cc1cc(S(=O)(=O)C2CCCC2)cc(=O)n1C(CC1CCCC1)C(=O)Nc1nccs1` (stereo not drawn) [Example 14, 3-cyclopentyl-2-(4-(cyclopentylsulfonyl)-6-methyl-2-oxopyridin-1(2H)-yl)-N-(thiazol-2-yl)propanamide]: the EC50 is less than 1.58 µM.

`N#Cc1cnc(NC(=O)[C@@H](CC2CCOCC2)n2ccc(S(=O)(=O)C3CCCC3)cc2=O)s1` [Example 56, (R)-N-(5-cyanothiazol-2-yl)-2-(4-(cyclopentylsulfonyl)-2-oxopyridin-1(2H)-yl)-3-(tetrahydro-2H-pyran-4-yl)propanamide]: the EC50 was more than 15.8 µM.

`O=C(Nc1ncc(F)s1)[C@H](CC1CCOCC1)n1ccc(S(=O)(=O)C2CC2)cc1=O` [Example 35, (S)-2-(4-(cyclopropylsulfonyl)-2-oxopyridin-1(2H)-yl)-N-(5-fluorothiazol-2-yl)-3-(tetrahydro-2H-pyran-4-yl)propanamide]: the EC50 is less than 1.58 µM.

Regarding `Cc1cc(-c2cccc(F)c2)cc(=O)n1[C@@H](CC1CCCCC1)C(=O)Nc1nccs1` [Example 109, (S)-3-cyclohexyl-2-(4-(3-fluorophenyl)-6-methyl-2-oxopyridin-1(2H)-yl)-N-(thiazol-2-yl)propanamide], the EC50 was more than 15.8 µM.

On to `O=C(Nc1ncc(F)s1)C(CC1CCOCC1)n1ccc(S(=O)(=O)c2ccccn2)cc1=O` (stereo not drawn) [Example 50, N-(5-fluorothiazol-2-yl)-2-(2-oxo-4-(pyridin-2-ylsulfonyl)pyridin-1(2H)-yl)-3-(tetrahydro-2H-pyran-4-yl)propanamide], for which the EC50 was less than 1.58 µM.

As for `Cc1cc(C#CCO)cc(=O)n1[C@H](CC1CCOCC1)C(=O)Nc1ncc(Cl)s1` (stereo in doubt) [Example 137, N-(5-chlorothiazol-2-yl)-2-(4-(3-hydroxyprop-1-ynyl)-6-methyl-2-oxopyridin-1(2H)-yl)-3-(tetrahydro-2H-pyran-4-yl)propanamide], the EC50 was more than 15.8 µM.

For the molecule `CCS(=O)(=O)c1cc(C)n(C(CC2CCCCC2)C(=O)Nc2nccs2)c(=O)c1` (stereo not drawn) [Example 4, 3-cyclohexyl-2-(4-(ethylsulfonyl)-6-methyl-2-oxopyridin-1(2H)-yl)-N-(thiazol-2-yl)propanamide trifluoroacetic acid salt], the EC50 fell in the range of 1.58 to 15.8 µM.

Regarding `CS(=O)(=O)c1ccn(C(Cc2ccsc2)C(=O)Nc2ncc(Cl)s2)c(=O)c1` (stereo not drawn) [Example 15, N-(5-chlorothiazol-2-yl)-2-(4-(methylsulfonyl)-2-oxopyridin-1(2H)-yl)-3-(thiophen-3-yl)propanamide], the EC50 is more than 15.8 µM.

Regarding `N#Cc1cnc(NC(=O)[C@H](CC2CCOCC2)n2ccc(S(=O)(=O)C3CCCC3)cc2=O)s1` [Example 57, (S)-N-(5-cyanothiazol-2-yl)-2-(4-(cyclopentylsulfonyl)-2-oxopyridin-1(2H)-yl)-3-(tetrahydro-2H-pyran-4-yl)propanamide], the EC50 fell in the range of 1.58 to 15.8 µM.

Turning to `Cc1cc(-c2cccc(NS(C)(=O)=O)c2)cc(=O)n1[C@@H](CC1CCCCC1)C(=O)Nc1nccs1` [Example 112, (S)-3-cyclohexyl-2-(6-methyl-4-(3-(methylsulfonamido)phenyl)-2-oxopyridin-1(2H)-yl)-N-(thiazol-2-yl)propanamide], the EC50 was more than 15.8 µM.

Take `COCCC(C)(C)S(=O)(=O)c1ccn([C@H](CC2CCOCC2)C(=O)Nc2nc3ccc(OC)nc3s2)c(=O)c1` [Example 120, (R)-2-(4-(4-methoxy-2-methylbutan-2-ylsulfonyl)-2-oxopyridin-1(2H)-yl)-N-(5-methoxythiazolo[5,4-b]pyridin-2-yl)-3-(tetrahydro-2H-pyran-4-yl)propanamide]: the EC50 is more than 15.8 µM.

Take `COc1ccc2nc(NC(=O)[C@@H](CC3CCOCC3)n3ccc(S(=O)(=O)C4CCCC4)cc3=O)sc2n1` [Example 58, (R)-2-(4-(cyclopentylsulfonyl)-2-oxopyridin-1(2H)-yl)-N-(5-methoxythiazolo[5,4-b]pyridin-2-yl)-3-(tetrahydro-2H-pyran-4-yl)propanamide]: the EC50 is more than 15.8 µM.

With `Cc1cc(S(=O)(=O)Cc2ccco2)cc(=O)n1[C@@H](CC1CCOCC1)C(=O)Nc1ncc(Cl)s1` [Example 141, (S)-N-(5-chlorothiazol-2-yl)-2-(4-(furan-2-ylmethylsulfonyl)-6-methyl-2-oxopyridin-1(2H)-yl)-3-(tetrahydro-2H-pyran-4-yl)propanamide], the EC50 was less than 1.58 µM.

For the molecule `Cc1cc(S(=O)(=O)C2CC2)cc(=O)n1[C@H](CC1CCOCC1)C(=O)Nc1ncc(Cl)s1` [Example 173, (R)-N-(5-chlorothiazol-2-yl)-2-(4-(cyclopropylsulfonyl)-6-methyl-2-oxopyridin-1(2H)-yl)-3-(tetrahydro-2H-pyran-4-yl)propanamide], the EC50 was more than 15.8 µM.

`Cc1cc(S(=O)(=O)C2CCCC2)cc(=O)n1C(Cc1ccco1)C(=O)Nc1nccs1` (stereo not drawn) [Example 21, 2-(4-(cyclopentylsulfonyl)-6-methyl-2-oxopyridin-1(2H)-yl)-3-(furan-2-yl)-N-(thiazol-2-yl)propanamide]: the EC50 is more than 15.8 µM.

For the molecule `CS(=O)(=O)c1ccn(C(CC2CCOCC2)C(=O)Nc2ncc(CCC(=O)O)s2)c(=O)c1` (stereo not drawn) [Example 53, 3-(2-(2-(4-(methylsulfonyl)-2-oxopyridin-1(2H)-yl)-3-(tetrahydro-2H-pyran-4-yl)propanamido)thiazol-5-yl)propanoic acid], the EC50 was more than 15.8 µM.

As for `Cc1cc(S(=O)(=O)C2CC2)c(N)c(=O)n1[C@H](CC1CCCC1)C(=O)Nc1ncc(F)s1` [Example 154, (R)-2-(3-amino-4-(cyclopropylsulfonyl)-6-methyl-2-oxopyridin-1(2H)-yl)-3-cyclopentyl-N-(5-fluorothiazol-2-yl)propanamide], the EC50 lay within 1.58 to 15.8 µM.

Turning to `Cc1cc(S(=O)(=O)C2CC2)cc(=O)n1[C@@H](CC1CCOCC1)C(=O)Nc1ncc(Cl)s1` [Example 172, (S)-N-(5-chlorothiazol-2-yl)-2-(4-(cyclopropylsulfonyl)-6-methyl-2-oxopyridin-1(2H)-yl)-3-(tetrahydro-2H-pyran-4-yl)propanamide], the EC50 was less than 1.58 µM.

On to `Cc1cc(S(=O)(=O)C2CC2)cc(=O)n1[C@@H](CC1CCCC1)C(=O)Nc1ncc(F)s1` [Example 162, (S)-3-cyclopentyl-2-(4-(cyclopropylsulfonyl)-6-methyl-2-oxopyridin-1(2H)-yl)-N-(5-fluorothiazol-2-yl)propanamide], for which the EC50 was less than 1.58 µM.

In the case of `CN(C)c1ccc2nc(NC(=O)C(CC3CCOCC3)n3ccc(S(=O)(=O)C4CC4)cc3=O)sc2n1` (stereo not drawn) [Example 128, 2-(4-(cyclopropylsulfonyl)-2-oxopyridin-1(2H)-yl)-N-(5-(dimethylamino)thiazolo[5,4-b]pyridin-2-yl)-3-(tetrahydro-2H-pyran-4-yl)propanamide], the EC50 was less than 1.58 µM.

Take `O=C(Nc1nc2ccc(Cl)cc2s1)C(CC1CCOCC1)n1ccc(S(=O)(=O)C2CC2)cc1=O` (stereo not drawn) [Example 130, N-(6-chlorobenzo[d]thiazol-2-yl)-2-(4-(cyclopropylsulfonyl)-2-oxopyridin-1(2H)-yl)-3-(tetrahydro-2H-pyran-4-yl)propanamide]: the EC50 lay within 1.58 to 15.8 µM.

Regarding `Cc1c(S(=O)(=O)C2CCCC2)c(C)c(=O)n([C@@H](CC2CCOCC2)C(=O)Nc2ncc(Cl)s2)c1C` [Example 135, (S)-N-(5-chlorothiazol-2-yl)-2-(4-(cyclopentylsulfonyl)-3,5,6-trimethyl-2-oxopyridin-1(2H)-yl)-3-(tetrahydro-2H-pyran-4-yl)propanamide], the EC50 was less than 1.58 µM.

Take `Cc1cc(O)cc(=O)n1C(CC1CCCCC1)C(=O)Nc1nccs1` (stereo not drawn) [Example 1, 3-cyclohexyl-2-(4-hydroxy-6-methyl-2-oxopyridin-1(2H)-yl)-N-(thiazol-2-yl)propanamide trifluoroacetic acid salt]: the EC50 was more than 15.8 µM.
